{"source": "paper PMC5802278", "about": "“Molecular and cellular mechanisms of HIF prolyl hydroxylase inhibitors in clinical trials” (Chemical Science, 2017)", "key": {"Hep3b cells": {"tested_on": "Hep3b cells", "experiment": "Hep3b cell viability / cell density after prolonged treatment", "format": "cell-based, human", "description": "Cell seeding and inhibitor treatments were performed in parallel in the same manner as used for the HRE reporter assay (see above). Resazurin (Sigma, R7017) was used for detection of cell viability at a final concentration of 10μg/ml. Cells were incubated with Resazurin at 37°C\nHep3b cell viability after prolonged treatment of PHD inhibitors. Cell viability"}, "[1]": {"tested_on": "patients with non-dialysis dependent (NDD) CKD (stage 3a/b, 4, or 5)", "design": "method as in ref 33 (a number printed in a supplementary file, which may have a reference list of its own: not looked up in the article's list)", "settings": "starting 450 mg daily, titrated, 20 weeks; cited from earlier work"}, "[2]": {"tested_on": "HIF target genes in Hep3b cells", "experiment": "RT-qPCR of HIF target genes", "format": "cell-based, human", "settings": "24 hours, 2.5 or 10 μM", "experimental": "The upregulation of HIF-α isoforms has multiple downstream effects.[1],[30],[86],[87] To investigate whether the inhibitors have differential effects on HIF target genes we measured their mRNA levels for a set of HIF target genes after 24 hours in Hep3b cells. The panel aimed to cover a small, yet representative, HIF target gene set. […]. […]. page 16:\nCells were lysed using the TRI reagent® (Sigma T9424). RNA was then extracted by phase separation following the manufacturer’s protocol. Extracted RNA was treated with the RNase-free DNase I (DNA-free™ DNA Removal Kit, Applied Biosystems AM1906) to eliminate contaminating DNA. For reverse transcription, 1μg of DNase-treated RNA samples were used for cDNA synthesis using High-Capacity cDNA Reverse Transcription Kit (Thermo Fisher Scientific 4368814). […] Quantitation of 18 relative expression level was analyzed using the ΔΔCT method with HPRT as a reference gene using; statistical analyses of the biological and technical repeats were calculated using StepOne Software (version 2.2.2). […]\nCell seeding and inhibitor treatments were performed in parallel in the same manner as used for the HRE reporter assay (see above). […] Fluorescence signals were measured with an excitation wavelength of 544 nm and emission wavelength of 590 nm using a FLUOstar Omega Microplate Reader (BMG"}, "[3]": {"tested_on": "patients with NDD CKD (stage 3 or 4) and Hb ≤ 10.5 g/dL", "design": "method as in ref 36 (a number printed in a supplementary file, which may have a reference list of its own: not looked up in the article's list)", "settings": "after 16 weeks of treatment, 143 subjects evaluable for efficacy; cited from earlier work"}, "[4]": {"tested_on": "patients with haemodialysis CKD, Hb 9.5-12.0 g/dL", "design": "method as in ref 43 (a number printed in a supplementary file, which may have a reference list of its own: not looked up in the article's list)", "settings": "cited from earlier work"}, "[5]": {"tested_on": "pre-dialysis subjects already on Darbepoetin treatment", "design": "method as in ref 40 (a number printed in a supplementary file, which may have a reference list of its own: not looked up in the article's list)", "settings": "16 weeks; cited from earlier work"}}, "note": "Where two headings read alike, the source gives them in different places.", "data": [{"smiles": "CC(C)(C)OC(=O)c1ccc(-n2[nH]cc(-n3ccnn3)c2=O)nc1", "note": "[IOX4]", "values": [{"measurement": "cell viability after prolonged treatment", "setting": "Hep3b cells; 10 μM, 24, 48, 72 hours", "result": "significant reduction in cell viability"}, {"measurement": "reduction in cell density versus the other 3 inhibitors (judged visually)", "setting": "Hep3b cells; 10 μM, 72nd hour", "result": "40–50%"}]}, {"smiles": "O=C(O)CNC(=O)c1ncc(-c2cccc(Cl)c2)cc1O", "note": "[Vadadustat]", "values": [{"measurement": "subjects with Hb increase ≥ 1.2 g/dL from baseline or mean Hb ≥ 11.0 g/dL during last 2 weeks of treatment", "setting": "[1]", "result": 55, "unit": "%"}, {"measurement": "upregulation of assayed HIF target genes", "setting": "[2]", "result": "failed to obviously upregulate assayed HIF target genes"}]}, {"smiles": "Cc1nc(C(=O)NCC(=O)O)c(O)c2ccc(Oc3ccccc3)cc12", "note": "[FG-4592]", "values": [{"measurement": "subjects with Hb increase ≥ 1 g/dL from baseline and Hb of ≥ 11.0 g/dL (Hb response) by week 17", "setting": "[3]", "result": 91.6, "unit": "%"}]}, {"smiles": "O=C(O)CNC(=O)C1C(=O)N(C2CCCCC2)C(=O)N(C2CCCCC2)C1=O", "note": "[GSK1278863]", "values": [{"measurement": "mean Hb increase from baseline at week 4", "setting": "[4]; 4 mg daily", "result": -0.28, "unit": "g/dL"}, {"measurement": "mean Hb increase from baseline at week 4", "setting": "[4]; 6 mg daily", "result": -0.01, "unit": "g/dL"}, {"measurement": "mean Hb increase from baseline at week 4", "setting": "[4]; 8 mg daily", "result": 0.54, "unit": "g/dL"}, {"measurement": "mean Hb increase from baseline at week 4", "setting": "[4]; 10 mg daily", "result": 0.97, "unit": "g/dL"}]}, {"smiles": "O=c1c(-n2ccnn2)c[nH]n1-c1cc(N2CCOCC2)ncn1", "note": "[Molidustat]", "values": [{"measurement": "mean change in Hb to evaluation period", "setting": "[5]", "result": 0.46, "unit": "g/dL"}]}]}
